Measured values as given in the NIST ThermoML archive (doi:10.1016/j.jct.2013.04.007).

Test: cn = amount concentration of the nth substance listed, in mol/dm3
Details: 303.15 K; 101 kPa; Liquid; 4510 conductivity meter; c1 = 0.001

With CC1=C(C(=O)O)N2C(=O)[C@@H](NC(=O)[C@H](N)c3ccc(O)cc3)[C@H]2SC1 [cefadroxil] + O the electrical conductivity was 0.0001 S/m.
